From patent US20260184675A1, “CHIRAL ISOMERIC SULFITE COMPOUND AND APPLICATION THEREOF” (Chengdu Hanova BioSciences Co., Ltd, priority 2024, published 2026)

Legend:
Format in all cases: in vivo
[1] = tested on: eggs of Harmonia axyridis; assay: Effect on hatching of eggs of Harmonia axyridis, egg card immersion; details: 100 ppm; for Number of hatched larvae 4 days after insecticide delivery, Replicate 1 / Number of hatched larvae 4 days after insecticide delivery, Replicate 2 / Number of hatched larvae 4 days after insecticide delivery, Replicate 3: Harmonia axyridis egg cards, immersed 30 seconds; for Hatching rate (%), Replicate 1 / Hatching rate (%), Replicate 2 / Hatching rate (%), Replicate 3: Harmonia axyridis eggs, 4 days after delivery
From the text: The eggs of Harmonia axyridis cards (with approximately 20 eggs per card) were purchased from Henan Jiyuan Baiyun Industry Co., Ltd. in Henan Province. The number of eggs on the egg cards was counted as the basic number before insecticide delivery, and 5 cards were used as one treatment, with 3 replicates per treatment. After immersing the egg cards in a 100 ppm insecticide solution for 30 seconds, they were taken out and air dried, then cultivated under moisturizing conditions, and the […] were cultivated at 27° C. 4 days after insecticide delivery, the hatching status of eggs of Harmonia axyridis was investigated, and the prevention and control effect was calculated according to the following formula. [formula] [formula]

[2] = tested on: pest eggs of Tetranychus cinnabarinus; assay: Effect on hatching of pest eggs of Tetranychus cinnabarinus, leaf disc method; details: for Hatching rate (%): 7 days after insecticide delivery
Procedure: (§1) • (1) Preparation of leaf discs containing eggs: 20 female adult mites of Tetranychus cinnabarinus were transferred onto leaf discs of Vicia faba with a diameter of 2.0 cm (with wetted filter paper at the bottom), then covered it with a lidded culture dish and cultivated under moisturizing conditions, the adult mites were removed within 36 hours and microscopic examination and counting were performed on leaf discs containing eggs. • (2) Investigation of egg population base: Before pesticide soaking, a microscopic examination was conducted on the egg basic number of each leaf disc, with 2 replicates set for each treatment. • (3) Pesticide soaking treatment: The leaf butterflies loaded with mite eggs were soaked in clear water and sulfite compounds for 10 seconds, respectively, then taken out and cultivated under moisturizing conditions. Each treatment should be repeated for no less than 3 times. • (4) Cultivation and observation: The […] were cultivated under normal conditions. Five days after insecticide delivery, the hatching status of mite eggs was investigated. • Note: The temperature and humidity conditions of the constant temperature and humidity incubator after the treatment should be controlled so as to avoid excessive temperature differences, which may cause generation and dripping of condensate water in the culture dish, resulting in abnormal death of eggs due to soaking in water; it is also necessary to ensure sufficient strong ambient light, without directing irradiating the leaves. • (5) Survey of Results: The experimental materials of each treatment group were regularly hydrated and moisturized, and the hatching of eggs was observed. On the 7th day after insecticide delivery, the number of hatched eggs for each treatment was recorded, and the survey of results was recorded in the original notebook. According to the experimental requirements and characteristics of agents, the survey time can be shortened or extended. • 1) Surveying and recording the number of hatched eggs for each treatment. • 2) Photographing and recording whether there was any pesticide damage to the leaf discs of Vicia faba. • 3) Recording the developmental status of experimental mite eggs, behavior status of nymph mites, including abnormal phenomena such as delayed or stopped development of mite eggs, difficulty in breaking hull for nymph mites, or painful struggles after hatching, etc. • (6) Calculation method: Based on the survey data, the prevention and control effect of each treatment was calculated according to the following formula, and the calculation results were kept to two decimal places. [formula] [formula] [table]

eggs of Aleyrodidae = assay: Effect on hatching of eggs of Aleyrodidae, leaf disc method; details: 10 ppm; for Hatching rate (%), Replicate 1 / Hatching rate (%), Replicate 2 / Hatching rate (%), Replicate 3 / Number of hatched larvae 5 days after insecticide delivery, Replicate 1 / Number of hatched larvae 5 days after insecticide delivery, Replicate 2 / Number of hatched larvae 5 days after insecticide delivery, Replicate 3: Aleyrodidae eggs; for Hatching rate (%), Replicate 1 / Hatching rate (%), Replicate 2 / Hatching rate (%), Replicate 3: 5 days after delivery; for Number of hatched larvae 5 days after insecticide delivery, Replicate 1 / Number of hatched larvae 5 days after insecticide delivery, Replicate 2 / Number of hatched larvae 5 days after insecticide delivery, Replicate 3: leaf disc
Procedure: as §1, with “extended.” for “extended. • 1) Surveying and recording the number of hatched eggs for each treatment. • 2) Photographing and recording whether there was any pesticide damage to the leaf discs of Vicia faba. • 3) Recording the developmental status of experimental mite eggs, behavior status of nymph mites, including abnormal phenomena such as delayed or stopped development of mite eggs, difficulty in breaking hull for nymph mites, or painful struggles after hatching, etc. • (6) Calculation method: Based on the survey data, the prevention and control effect of each treatment was calculated according to the following formula, and the calculation results were kept to two decimal places. [formula] [formula] [table]”
• 1) Surveying and recording the number of hatched eggs for each treatment. • 2) Photographing and recording whether there was any pesticide damage to the leaf discs of Vicia faba. • 3) Recording the developmental status of experimental mite eggs, behavior status of nymph mites, including abnormal phenomena such as delayed or stopped development of mite eggs, difficulty in breaking hull for nymph mites, or painful struggles after hatching, etc. • (6) Calculation method: Based on the survey data, the prevention and control effect of each treatment was calculated according to the following formula, and the calculation results were kept to two decimal places.
This test adopted the method in Test Example 1 of technical section, mainly used leaf disc method to explore the inhibitory effect on hatching of eggs of Aleyrodidae by compounds 1-(S,S), 1-(S,R), 1-(R,R), 1-(R,S), 1′-(S,S), 1′-(S,R), 1′-(R,R), 1′-(R,S), compound 1, compound 1′, S-10, R-10, S-10′, R-10′, compound 10, compound 10′, compound 19-(S,S), 19-(S,R), 19-(R,R), 19-(R,S), 19′-(S,S), 19′-(S,R), 19′-(R,R), 19′-(R,S), compound 19, and compound 19′. The concentration of all compounds was 10 ppm.

Structure (SMILES): C[C@@H](COS(=O)OCCF)Oc1ccc(Cl)cc1Cl (stereo partly drawn) [1-(S,R)]
- Number of hatched larvae 4 days after insecticide delivery, Replicate 1 ([1]; listed as 1-(S, R)): 13
- Number of hatched larvae 4 days after insecticide delivery, Replicate 2 ([1]; listed as 1-(S, R)): 14
- Number of hatched larvae 4 days after insecticide delivery, Replicate 3 ([1]; listed as 1-(S, R)): 14
- Hatching rate (%), Replicate 1 ([1]; listed as 1-(S, R)): 12.04%
- Hatching rate (%), Replicate 2 ([1]; listed as 1-(S, R)): 14.14%
- Hatching rate (%), Replicate 3 ([1]; listed as 1-(S, R)): 13.73%
- Hatching rate (%) ([2]; 0.25 mg/L, Replicate 1): 59.57%
- Hatching rate (%) ([2]; 0.25 mg/L, Replicate 2): 76.09%
- Number of hatched larvae 7 days after insecticide delivery ([2]; 0.25 mg/L, Replicate 1): 19
- Number of hatched larvae 7 days after insecticide delivery ([2]; 0.25 mg/L, Replicate 2): 11
- Hatching rate (%) ([2]; 0.5 mg/L, Replicate 1): 35.29%
- Hatching rate (%) ([2]; 0.5 mg/L, Replicate 2): 31.25%
- Number of hatched larvae 7 days after insecticide delivery ([2]; 0.5 mg/L, Replicate 1): 33
- Number of hatched larvae 7 days after insecticide delivery ([2]; 0.5 mg/L, Replicate 2): 44
- Hatching rate (%) ([2]; 1 mg/L, Replicate 1): 2.56%
- Hatching rate (%) ([2]; 1 mg/L, Replicate 2): 0.00%
- Number of hatched larvae 7 days after insecticide delivery ([2]; 1 mg/L, Replicate 1): 76
- Number of hatched larvae 7 days after insecticide delivery ([2]; 1 mg/L, Replicate 2): 64
- Hatching rate (%), Replicate 1 (eggs of Aleyrodidae; listed as 1-(S, R)): 9.65%
- Hatching rate (%), Replicate 2 (eggs of Aleyrodidae; listed as 1-(S, R)): 9.38%
- Hatching rate (%), Replicate 3 (eggs of Aleyrodidae; listed as 1-(S, R)): 10.48%
- Number of hatched larvae 5 days after insecticide delivery, Replicate 1 (eggs of Aleyrodidae; listed as 1-(S, R)): 11
- Number of hatched larvae 5 days after insecticide delivery, Replicate 2 (eggs of Aleyrodidae; listed as 1-(S, R)): 12
- Number of hatched larvae 5 days after insecticide delivery, Replicate 3 (eggs of Aleyrodidae; listed as 1-(S, R)): 11

Structure (SMILES): C[C@@H](COS(=O)OCCF)Oc1ccc(Cl)cc1Cl (stereo partly drawn) [1-(S,S)]
- inhibitory activity on the hatching of eggs of Harmonia axyridis (in words) [1]: strong inhibitory activities
- Number of hatched larvae 4 days after insecticide delivery, Replicate 1 ([1]; listed as 1-(S, S)): 0
- Number of hatched larvae 4 days after insecticide delivery, Replicate 2 ([1]; listed as 1-(S, S)): 0
- Number of hatched larvae 4 days after insecticide delivery, Replicate 3 ([1]; listed as 1-(S, S)): 0
- Hatching rate (%), Replicate 1 ([1]; listed as 1-(S, S)): 0.00%
- Hatching rate (%), Replicate 2 ([1]; listed as 1-(S, S)): 0.00%
- Hatching rate (%), Replicate 3 ([1]; listed as 1-(S, S)): 0.00%
- Hatching rate (%) ([2]; 0.25 mg/L, Replicate 1): 50.88%
- Hatching rate (%) ([2]; 0.25 mg/L, Replicate 2): 38.98%
- Number of hatched larvae 7 days after insecticide delivery ([2]; 0.25 mg/L, Replicate 1): 28
- Number of hatched larvae 7 days after insecticide delivery ([2]; 0.25 mg/L, Replicate 2): 36
- Hatching rate (%) ([2]; 0.5 mg/L, Replicate 1): 0.00%
- Hatching rate (%) ([2]; 0.5 mg/L, Replicate 2): 9.72%
- Number of hatched larvae 7 days after insecticide delivery ([2]; 0.5 mg/L, Replicate 1): 70
- Number of hatched larvae 7 days after insecticide delivery ([2]; 0.5 mg/L, Replicate 2): 65
- Hatching rate (%) ([2]; 1 mg/L, Replicate 1): 0.00%
- Hatching rate (%) ([2]; 1 mg/L, Replicate 2): 0.00%
- Number of hatched larvae 7 days after insecticide delivery ([2]; 1 mg/L, Replicate 1): 75
- Number of hatched larvae 7 days after insecticide delivery ([2]; 1 mg/L, Replicate 2): 68
- inhibitory effect on the hatching of pest eggs of Tetranychus cinnabarinus (in words) ([2]; 1 ppm): excellent inhibitory effects
- inhibitory activity on the hatching of eggs of Aleyrodidae (in words) (eggs of Aleyrodidae): strong inhibitory activities
- Hatching rate (%), Replicate 1 (eggs of Aleyrodidae; listed as 1-(S, S)): 0.00%
- Hatching rate (%), Replicate 2 (eggs of Aleyrodidae; listed as 1-(S, S)): 0.00%
- Hatching rate (%), Replicate 3 (eggs of Aleyrodidae; listed as 1-(S, S)): 0.00%
- Number of hatched larvae 5 days after insecticide delivery, Replicate 1 (eggs of Aleyrodidae; listed as 1-(S, S)): 0
- Number of hatched larvae 5 days after insecticide delivery, Replicate 2 (eggs of Aleyrodidae; listed as 1-(S, S)): 0
- Number of hatched larvae 5 days after insecticide delivery, Replicate 3 (eggs of Aleyrodidae; listed as 1-(S, S)): 0
